{"source": "BindingDB's records for doi:10.1016/j.ejmech.2021.113889", "about": "(China Pharmaceutical University, 2021)", "target": "Glycogen synthase kinase-3 beta (Homo sapiens, UniProt P49841)", "sequence (P49841 whole entry)": "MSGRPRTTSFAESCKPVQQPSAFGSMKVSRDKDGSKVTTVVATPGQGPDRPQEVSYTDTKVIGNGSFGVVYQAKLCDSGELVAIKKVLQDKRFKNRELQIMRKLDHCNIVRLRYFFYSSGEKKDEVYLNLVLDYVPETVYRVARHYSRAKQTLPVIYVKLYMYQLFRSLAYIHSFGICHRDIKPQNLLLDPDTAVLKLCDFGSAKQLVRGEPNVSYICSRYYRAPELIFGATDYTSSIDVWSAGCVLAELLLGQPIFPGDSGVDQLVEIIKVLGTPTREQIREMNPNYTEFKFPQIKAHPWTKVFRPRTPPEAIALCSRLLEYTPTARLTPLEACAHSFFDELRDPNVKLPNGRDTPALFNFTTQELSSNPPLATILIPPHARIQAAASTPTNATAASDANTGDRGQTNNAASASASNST", "test": "Binding affinity to recombinant GSK3beta (unknown origin) assessed as dissociation rate constant upto 0.00975 uM by SPR analysis"}
{"smiles": "Nc1ncc(-c2ccc(S(=O)(=O)N3CCN(CCCCc4cn(CCOCCOCCOCCOCCOCCNc5cccc6c5C(=O)N(C5CCC(=O)NC5=O)C6=O)nn4)CC3)cc2)nc1C(=O)Nc1cccnc1", "note": "(stereo unspecified)", "values": [{"measurement": "koff", "value": 0.0253, "unit": "s⁻¹"}]}
